Experimental data as given in patent US20100311965A1, “2-AMINOQUINAZOLINE DERIVATIVE” (CARNA BIOSCIENCES INC., priority 2007, published 2010).

Assays:
AurA kinase = molecular target: T1, AurA kinase (Homo sapiens, UniProt O14965); test: Kinase activity, mobility shift assay (MSA), AurA; type: biochemical; conditions: read-out: inhibitory activity against AurA kinase
T1 construct: purchased Carna Biosciences Inc. (Kobe) 05-101
T1 sequence (O14965 1-403): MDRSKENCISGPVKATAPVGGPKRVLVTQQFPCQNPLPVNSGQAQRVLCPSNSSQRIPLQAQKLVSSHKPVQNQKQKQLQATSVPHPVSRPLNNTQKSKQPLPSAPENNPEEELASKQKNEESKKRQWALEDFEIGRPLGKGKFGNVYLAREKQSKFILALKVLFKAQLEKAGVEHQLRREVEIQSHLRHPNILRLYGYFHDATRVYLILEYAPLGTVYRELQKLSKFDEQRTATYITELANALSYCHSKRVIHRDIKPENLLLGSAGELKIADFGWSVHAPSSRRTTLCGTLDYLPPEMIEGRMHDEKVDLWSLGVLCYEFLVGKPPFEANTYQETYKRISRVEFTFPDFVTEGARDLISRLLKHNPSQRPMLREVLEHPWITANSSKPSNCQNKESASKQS
Procedure: (§1) A test compound was dissolved in DMSO to obtain a 10 mM test compound solution, which was stored in a dark place at −20° C. until measurement. When bioactivity (kinase activity) is measured, a test compound solution is diluted with DMSO so that the concentration becomes 100 times higher than […], and then diluted 25 times (DMSO concentration is 4%) with an assay buffer described hereinafter.
(§2) Products manufactured by Carna Biosciences Inc. (Kobe) used as protein kinases (recombinant human kinases) in the test are as follows: […]
(§3) Kinase activity was measured by a mobility shift assay (MSA) method using QuickScout Screening Assist™ MSA (commercially available kit, manufactured by Carna Biosciences Inc.)
(§4) 5 μl of a test compound solution (the concentration is 4 times of the final concentration) dissolved or suspended in an assay buffer [20 mM HEPES, 0.01% Triton™ X-100, 1 mM dithiothreitol, pH 7.5] or 5 μl of a solvent (4% DMSO-assay buffer) was charged in a 384 well plate made of polypropylene (product number 781280, manufactured by Greiner Bio-One Co., Ltd.). […] Inhibition (%) of the test compound was calculated in accordance with the following equation: […]

JAK2 = JAK2 (Homo sapiens, UniProt O60674); test: Kinase activity, mobility shift assay (MSA), JAK2; type: biochemical; conditions: read-out: inhibitory activity against JAK2 kinase
JAK2, sequence (O60674 whole entry): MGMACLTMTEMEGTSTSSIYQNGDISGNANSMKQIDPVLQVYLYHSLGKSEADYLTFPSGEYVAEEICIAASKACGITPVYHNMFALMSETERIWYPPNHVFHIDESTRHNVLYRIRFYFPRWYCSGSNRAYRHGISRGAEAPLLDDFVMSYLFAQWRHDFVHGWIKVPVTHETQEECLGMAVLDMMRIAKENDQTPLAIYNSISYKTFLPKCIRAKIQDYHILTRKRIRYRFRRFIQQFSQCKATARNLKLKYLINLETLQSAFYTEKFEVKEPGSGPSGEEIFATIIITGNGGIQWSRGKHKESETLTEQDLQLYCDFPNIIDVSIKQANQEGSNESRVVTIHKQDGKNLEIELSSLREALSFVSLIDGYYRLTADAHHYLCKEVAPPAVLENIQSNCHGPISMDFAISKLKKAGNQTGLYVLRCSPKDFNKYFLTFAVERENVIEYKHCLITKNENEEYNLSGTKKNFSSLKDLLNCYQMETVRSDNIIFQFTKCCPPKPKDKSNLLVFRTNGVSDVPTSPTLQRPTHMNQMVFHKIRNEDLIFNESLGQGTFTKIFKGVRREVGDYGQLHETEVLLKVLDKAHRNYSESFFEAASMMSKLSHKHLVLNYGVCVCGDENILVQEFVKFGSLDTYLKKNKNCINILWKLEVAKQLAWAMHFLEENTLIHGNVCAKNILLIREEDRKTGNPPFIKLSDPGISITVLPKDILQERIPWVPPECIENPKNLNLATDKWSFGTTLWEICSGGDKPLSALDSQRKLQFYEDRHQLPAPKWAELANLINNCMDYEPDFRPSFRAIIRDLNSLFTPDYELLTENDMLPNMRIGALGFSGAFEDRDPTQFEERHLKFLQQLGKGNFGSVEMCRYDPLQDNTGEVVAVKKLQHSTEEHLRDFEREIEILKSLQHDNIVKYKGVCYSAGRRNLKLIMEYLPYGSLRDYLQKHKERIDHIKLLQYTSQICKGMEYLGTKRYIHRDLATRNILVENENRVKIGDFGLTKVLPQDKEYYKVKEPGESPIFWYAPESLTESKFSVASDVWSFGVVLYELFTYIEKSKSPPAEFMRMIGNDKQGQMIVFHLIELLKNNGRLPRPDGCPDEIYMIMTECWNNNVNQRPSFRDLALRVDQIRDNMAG

JAK3 = molecular target: T2, JAK3 (Homo sapiens, UniProt P52333); test: Kinase activity, mobility shift assay (MSA), JAK3; type: biochemical; conditions: read-out: inhibitory activity against JAK3 kinase
T2 construct: purchased Carna Biosciences Inc. (Kobe) 08-046
T2 sequence (P52333 1-1124): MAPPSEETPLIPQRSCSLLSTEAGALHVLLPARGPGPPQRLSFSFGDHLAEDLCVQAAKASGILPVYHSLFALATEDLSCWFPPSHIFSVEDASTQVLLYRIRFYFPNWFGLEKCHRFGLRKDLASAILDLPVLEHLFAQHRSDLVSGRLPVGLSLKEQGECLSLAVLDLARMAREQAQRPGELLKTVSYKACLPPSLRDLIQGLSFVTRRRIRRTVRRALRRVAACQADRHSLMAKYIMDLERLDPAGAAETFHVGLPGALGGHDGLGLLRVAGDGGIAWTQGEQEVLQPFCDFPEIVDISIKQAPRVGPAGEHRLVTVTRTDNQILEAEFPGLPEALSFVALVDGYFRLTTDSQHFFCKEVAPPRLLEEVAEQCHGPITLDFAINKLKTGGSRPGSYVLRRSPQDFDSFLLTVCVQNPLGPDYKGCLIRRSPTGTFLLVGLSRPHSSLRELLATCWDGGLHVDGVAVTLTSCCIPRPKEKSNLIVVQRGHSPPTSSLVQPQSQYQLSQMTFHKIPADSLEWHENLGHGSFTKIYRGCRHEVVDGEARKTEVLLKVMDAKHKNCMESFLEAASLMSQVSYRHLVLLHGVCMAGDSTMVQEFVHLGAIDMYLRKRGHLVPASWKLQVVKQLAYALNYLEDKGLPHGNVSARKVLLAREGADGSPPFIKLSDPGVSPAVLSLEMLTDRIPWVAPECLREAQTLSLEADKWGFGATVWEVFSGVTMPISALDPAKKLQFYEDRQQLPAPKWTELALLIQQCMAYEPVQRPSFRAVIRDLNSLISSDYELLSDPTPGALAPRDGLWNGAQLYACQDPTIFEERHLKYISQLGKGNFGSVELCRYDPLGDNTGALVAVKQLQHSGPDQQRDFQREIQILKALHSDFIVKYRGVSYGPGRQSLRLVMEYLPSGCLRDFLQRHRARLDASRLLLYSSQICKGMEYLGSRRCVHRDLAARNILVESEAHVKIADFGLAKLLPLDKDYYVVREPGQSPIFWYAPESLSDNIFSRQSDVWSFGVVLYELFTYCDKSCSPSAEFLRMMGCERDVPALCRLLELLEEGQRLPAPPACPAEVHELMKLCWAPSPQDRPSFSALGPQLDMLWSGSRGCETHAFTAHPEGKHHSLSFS
Procedure: as §1, §2, §3, §4

[1] = tested on: Rat basophilic cells RBL-2H3; test: Action against IgE-induced degranulation (β-hexosaminidase release); type: cell-based; conditions: RBL-2H3 cells, anti-DNP-IgE / DNP-BSA, read-out: inhibitory activity against IgE-induced degranulation
Procedure: An inhibitory action against SYK was evaluated by an inhibitory action against degranulation of basophils induced by IgE. Rat basophilic cells RBL-2H3 were incubated with an anti-DNP-IgE antibody (1 μg/mL, Zymed) overnight. After washing cells twice with HBSS, an antigen DNP-BSA (1 μg/mL, LSL) was added, followed by incubation for 30 minutes. The supernatant was taken and an activity of β-hexosaminidase in the solution isolated by degranulation was measured using p-nitrophenyl-N-β-D-glucosaminide as a substrate. Using an absorbance meter (Spectra MAX Pro, Molecular Devices), each absorbance at 405 nm and 570 nm of the solution was measured and an increase in the amount was taken as an enzyme activity. 10 minutes before the addition of an antigen, a test material and a solvent (0.1% DMSO) were added to cells. Inhibition rate (%) against degranulation was calculated by the following equation.
Inhibition rate (%)=(1−(A−C)/(B−C))×100
where A denotes an increase in absorbance of a test material group, B denotes an increase in absorbance of a solvent group, and C denotes an increase in absorbance of a solvent group which is not stimulated by an antigen.

Syk kinase = molecular target: T3, Syk kinase (Homo sapiens, UniProt P43405); test: Kinase activity, mobility shift assay (MSA), Syk; type: biochemical; conditions: read-out: inhibitory activity against Syk kinase
T3 construct: purchased Carna Biosciences Inc. (Kobe) 08-176
Procedure: as §1
Products manufactured by Carna Biosciences Inc. (Kobe) used as protein kinases (recombinant human kinases) in the test are as follows:
SYK (product number: 08-176), JAK3 (product number: 08-046), FLT3 (product number: 08-154), PDGFRα (PDGFRA) (product number: 08-157), TRKA (NTRK1) (product number: 08-186), KDR (product number: 08-191), CDK2/cycA (product number: 04-103), and AurA (AURKA) (product number: 05-101).
as §3
5 μl of a test compound solution (the concentration is 4 times of the final concentration) dissolved or suspended in an assay buffer [20 mM HEPES, 0.01% Triton™ X-100, 1 mM dithiothreitol, pH 7.5] or 5 μl of a solvent (4% DMSO-assay buffer) was charged in a 384 well plate made of polypropylene (product number 781280, manufactured by Greiner Bio-One Co., Ltd.). Then, 5 μl of ATP/substrate/metal solution of QuickScout Screening Assist MSA was added. Furthermore, 10 μl of a kinase solution diluted with assay buffer was added and the reaction was initiated. However, only assay buffer (10 μl) was added to blank. The concentration of kinase and reaction conditions were controlled in accordance with the protocol of QuickScout Screening Assist MSA. Then, the reaction was terminated by adding 60 μl of termination buffer of QuickScout Screening Assist MSA and the amount of a substrate (S) and a phosphorylated substrate (P) in the reaction solution were determined in accordance with the protocol of QuickScout Screening Assist MSA using LabChip3000 (manufactured by Caliper Life Sciences Co., MA, USA), and also inhibition of the test compound at a concentration of 0.01, 0.1 and 1 μM was measured, respectively. The amounts of S and P were expressed by the height of each separated peak. Inhibition (%) of the test compound was calculated in accordance with the following equation:
Inhibition (%)=(1−(C−A)/(B−A))×100
where A denotes blank, B denotes a solvent and C denotes P/(P+S) of a well of the compound.

inhibition at 0.1 µM (AurA kinase) | inhibition at 0.1 µM (JAK2) | inhibition at 0.1 µM (JAK3) | inhibition at 0.1 µM (Syk kinase) | SMILES | inhibition at 0.05 µM [1]
≥ 50% |  |  |  | Cc1cccc2cnc(Nc3ccc4cc[nH]c4c3)nc12 [Example 5, N-(1H-indol-6-yl)-8-methylquinazoline-2-amine] | 
 | ≥ 50% | ≥ 50% |  | COc1ccc(Nc2ncc3cccc(C)c3n2)cc1OC [Example 30] | 
 |  |  | ≥ 50% | Cc1cccc2cnc(Nc3cc(O)c4cn[nH]c4c3)nc12 [Example 82, 8-methyl-N-(4-hydroxy-1H-indazol-6-yl)quinazoline-2-amine] | ≥ 50%
 |  |  | ≥ 50% | Cc1nc2c(N)cc(Nc3ncc4cccc(C)c4n3)cc2[nH]1 [Example 88, 8-methyl-N-(2-methyl-4-amino-1H-benzo[d]imidazol-6-yl)quinazoline-2-amine] | ≥ 50%
